Experimental data: a melting point compilation (Tetko et al.)

melting point | SMILES
110 °C | COc1ccc(-c2occ(C(=O)c3ccccc3)c2S(=O)(=O)c2ccccc2)cc1
267 °C | C[Si](C)(C)[Si]([Si](C)(C)C)([Si](C)(C)C)[Si](C)(C)C
125 to 127 °C | COC(=O)c1ccccc1S(N)(=O)=O
-65 °C | COCCCN
58 to 60 °C | OCC(F)(F)C(F)(F)C(F)(F)C(F)(F)C(F)(F)C(F)(F)C(F)(F)C(F)F
36 °C | CSc1ccccc1C#N
52 to 54 °C | CC(=O)c1ccc(Oc2ccccc2)cc1
-16 °C | NCCN(CCN)CCN
137 °C | CCOc1ccc(-c2nnc3n2NC(c2ccc(N(C)C)cc2)S3)cc1 (configuration not stated)
68 °C | O=[N+]([O-])c1ccc2c(c1)NCC2
-10 °C | CCCCCC1C(=O)CCC1CC(=O)OC (configuration not stated)
257 °C | Nc1ccc(N)c2c1C(=O)c1cccc([N+](=O)[O-])c1C2=O
5 °C | CC(=O)c1ccccc1O
11.5 °C | C1CCC(CCC2CCCCC2)CC1
114 to 115 °C | ClCc1cc2ccccc2nc1Cl
190 °C | O=[N+]([O-])c1cccc(-c2nnc3n2NC(c2ccco2)S3)c1 (configuration not stated)
244 °C | COC(=O)c1cc(O)nc(O)n1
122 °C | O=[N+]([O-])c1ccc(O)cc1O
73 to 75 °C | O=C(CCl)Oc1ccc([N+](=O)[O-])cc1
192 °C | NC(N)=NS(=O)(=O)c1ccc(N)cc1
145 °C | O=CN(C=O)C(N(C=O)C=O)N(C=O)C=O

melting point | SMILES
115 to 117 °C | CC(=O)Nc1ccccc1/C=C\c1ccccc1
-44 °C | CC(C)CCNCCC(C)C
-19 °C | CC=C(C)Cl
37 °C | Nc1cc[nH]n1
49 to 51 °C | N=C(N)C(F)(F)C(F)(F)C(F)(F)F
101 °C | O=C(O)Cc1c(F)cccc1F
169 °C | C=CCN1CCCC1CNC(=O)c1cc(S(=O)(=O)NC)c(N)cc1OC (configuration not stated)
188 °C | O=C(c1ccccc1)c1noc(-c2ccccc2)c1S(=O)(=O)c1ccccc1
83 to 84 °C | O=[N+]([O-])c1cccc2c(/C=N\c3ccccc3)cccc12
38 °C | CN(C)c1ccc(N=C=O)cc1
65 °C | COC(=O)c1ccccc1SC
56 °C | O=C(c1c(F)c(F)c(F)c(F)c1F)n1ccnc1
99 to 101 °C | O=C(C=Cc1ccc(-c2ccccc2)o1)c1ccco1
47 to 49 °C | CN1CCOc2cc(Br)ccc21
161 °C | CCN(CCO)c1ccc(N=Nc2ccc([N+](=O)[O-])cc2)cc1
32 to 36 °C | CC(C)[C@@H](N)CO
51 to 55 °C | CCOC(=O)c1cc(C(=O)OCC)[nH]n1
57 to 58 °C | COc1ccc(C(=O)CC(=O)C(F)(F)F)cc1
157 to 159 °C | FC(F)(F)c1cccc(-n2cc[nH]c2=S)c1
88.5 °C | CCOC(=O)Cc1cccc2ccccc12
260 °C | O=C(O)c1cncc(-c2ccccc2)c1

melting point | SMILES
139 °C | O=C(O)COc1ccc(Cl)c(Cl)c1
194 °C | NC(=O)C1(N2C(=O)c3cccc(Cl)c3C2=O)CCCCC1
93.5 °C | CC(C)NNC(=O)COc1ccc(Cl)cc1
46 °C | Cc1ccc(C=O)cc1[N+](=O)[O-]
136 °C | Cc1ccc(O)c(N)c1
54 °C | CSC(=NC#N)SC
180 to 182 °C | O=C1OC(/C=C/c2ccc([N+](=O)[O-])cc2)Cc2ccccc21 (configuration not stated)
63 °C | O=C(O)CCCOc1ccccc1
128 to 133 °C | CC(C)CCC[C@@H](C)[C@H]1CC[C@H]2[C@@H]3CC[C@H]4CC(=O)CC[C@]4(C)[C@H]3CC[C@]12C
218 to 219 °C | CC1=NN(c2ccccc2)C(=O)C1=C(Br)C1C(=O)N(c2ccccc2)N=C1C (configuration not stated)
103 to 105 °C | CCOC=C(C#N)S(=O)(=O)C(C)(C)C
126 to 128 °C | OCc1cc(-c2cccs2)[nH]n1
163 °C | CCC(C(=O)Nc1cccc2ccccc12)C1CCC(OC)CC1 (configuration not stated)
121 to 124 °C | COC(=O)c1ccccc1SCC#N
148 °C | CC(=C/C=N/NC(N)=O)C(C)(C)C
78.5 °C | O=[N+]([O-])c1ccsc1
97.5 °C | CN(C)CCC=C1c2ccccc2Sc2ccc(Cl)cc21
155 to 156 °C | FC(F)(F)c1ccc(-c2nnc(S)o2)cc1
47 °C | CN(NC=O)c1ccccc1

SMILES | melting point
CCN(CC)C(=S)Cl | 45 to 50 °C
Cc1ccc(-c2nc3ccc(C)cn3c2CC(=O)N(C)C)cc1 | 196 °C
CCCCCCF | -103 °C
COC(=O)c1ccccc1S(=O)(=O)NC(=O)Nc1nc(C)cc(C)n1 | 204 °C
CC(=O)C(F)(F)F | -78 °C
CC(Cl)C(N)=O (configuration not stated) | 76 to 81 °C
